According to PMC9131871, “Impact of Micropolymorphism Outside the Peptide Binding Groove in the Clinically Relevant Allele HLA-C*14 on T Cell Responses in HIV-1 Infection” (Journal of Virology, 2022):

These sequences were tested against HLA-C*14:02 (Homo sapiens, UniProt P10321, A176E/A330V/A35S/A97T/C350S/D114A/D33S/L171W/L180R/L218V/M285V/M309V/M331V/P208H/Q277E/Q291P/R121W/R243W/S123F/S297R/S48A/T329A/T363A/V319A) (assay: HLA stabilization assay on RMA-S-C1402 cells). Conditions: 100 μM peptide, 26°C 1 h then 37°C 3 h, MAb DT-9 staining, flow cytometry, triplicate assays.
Assay type: cell-based
Description: We next sought to confirm the HLA-C*14:02/C*14:03 restriction of the HIV-1 peptides identified by LC-MS/MS. First, we tested their ability to bind to HLA-C*14:02 or HLA-C*14:03 using HLA stabilization assays. Of the 25 HIV-1 peptides, three Env peptides, Env SI8, Env AM11, and Env VM9, are located in variable regions V2 and V3. In addition, Pol AF10, Pol PF8, Pol VWL9, and Env YI9 are located in regions where high sequence variation is reported in the LANL database. Therefore, we excluded these peptides from further analysis. The other 18 peptides were synthesized and tested for binding to HLA-C*14:02/C*14:03 by analyzing their ability to stabilize surface HLA expression on TAP-defective RMA-S cell lines expressing HLA-C*14:02 (RMA-S-C1402) or HLA-C*14:03 (RMA-S-C1403). These RMA-S cell lines express equivalent levels of HLA-C*14:02 and HLA-C*14:03 on the cell surface at 26°C, and surface HLA expression declines to very low levels when the cells are warmed to 37°C in the absence of exogenously added stabilizing peptides (Fig. 2A). Peptide binding was determined by evaluating whether HLA-I expression was stabilized in the presence of 100 μM peptide.
FIG 2 HLA-C*14:02/14:03 binding of HIV-1 peptides eluted from NL4-3-infected .221-C1402 and .221-C1403 cells as assessed by HLA stabilization assay using RMA-S cell lines. (A) Histogram plots showing surface expression of HLA-C*14:02 or HLA-C*14:03 on RMA-S-C1402 or RMA-S-C1403 cells at 26°C and after cells cultured at 26°C had been warmed to 37°C for 3 h. MFI values of cells cultured at 26°C were 27.4 for HLA-C*14:02 and 28.1 for HLA-C*14:03. MFI values of cells cultured at 37°C for 3 h were 5.0 for HLA-C*14:02 and 6.54 for HLA-C*14:03. (B) Analysis of binding of 14 HIV-1 NL4.3 peptides identified by LC-MS/MS to HLA-C*14:02 (blue) or HLA-C*14:03 (red) as measured in HLA class I stabilization assays using RMA-S-C1402 or RMA-S-C1403 cells. (C) Analysis of binding of 9 additional variant peptides to HLA-C*14:02 (blue) or C*14:03 (red). For panels B and C, peptides were tested at a concentration of 100 μM. Results are plotted as percent surface HLA-I expression relative to that at 26°C, calculated as the ratio of the MFI of peptide-pulsed RMA-S-C1402 or RMA-S-C1403 cells to that of control (non-peptide-pulsed) cells kept at 26°C, multiplied by 100. Means and standard deviations (SDs) from triplicate assays are shown. Statistical analyses were performed by unpaired t test. The P values were corrected for multiple testing. *, P < 0.05 and q < 0.05; **, P < 0.01 and q < 0.03; ***, P < 0.001 and q < 0.005.
The relative affinity of peptide binding to HLA-C*14:02 and -C*14:03 was examined using RMA-S-C1402 and RMA-S-C1403 cells as previously described ([15]). Briefly, RMA-S cells were cultured at 26°C for 16 h, pulsed with peptides at 26°C for 1 h, and subsequently incubated at 37°C for 3 h. Staining of cell surface HLA-C molecules was performed with the HLA-C-reactive monoclonal antibody (MAb) DT-9 ([48]), a gift from Mary Carrington, NIH, and fluorescein isothiocyanate (FITC)-conjugated sheep anti-mouse IgG (Jackson ImmunoResearch). Staining data were acquired on a FACSCanto II instrument (BD Biosciences) and analyzed using FlowJo 10.7.1 software. Relative HLA expression was calculated as the ratio of the mean fluorescence intensity (MFI) of peptide-pulsed RMA-S-C1402 cells or RMA-S-C1403 cells to that of control (non-peptide-pulsed) cells kept at 26°C, multiplied by 100 to express the values for peptide-pulsed cells as a percentage of that for the control cells at 26°C.

Sequence	binding to HLA-C*14:02 (stabilization of surface HLA expression)
ASGYIEAEV [Pol AV9, HIV-1 NL4-3 Pol 795–803 peptide …]	did not exhibit detectable binding
FFREDLAF [Pol FF8, HIV-1 NL4-3 Pol 1–8 peptide FFREDLAF]	low
FLGAAGSTM [Env FM9, HIV-1 NL4-3 Env 522–530 peptide …]	did not exhibit detectable binding
FMTKALGI [Tat FI8, HIV-1 NL4-3 Tat 38–45 peptide FMTKALGI]	did not exhibit detectable binding
RFDSRLAF [Nef RF8, HIV-1 NL4-3 Nef 184–191 peptide RFDSRLAF]	did not exhibit detectable binding
VYYDPSKDL [Pol VYL9, HIV-1 NL4-3 Pol 472–480 peptide …]	low

Same assay, conditions: peptide concentrations from 0.1 to 100 μM, 6 epitope peptides compared

Sequence	relative affinity in hierarchy of peptide-HLA-C*14 binding (HLA-C*14:02)
AFHHVAREL [Nef AL9]	lowest
AFSPEVIPM [Gag AM9]	highest
